The source of these data is PMC6429585, “Synthesis, Microtubule-Binding Affinity, and Antiproliferative Activity of New Epothilone Analogs and of an EGFR-Targeted Epothilone-Peptide Conjugate” (International Journal of Molecular Sciences, 2019).

Like-named read-outs stand apart in the source and are kept apart here. Some results are limits rather than exact numbers.

One assay deals with A431 cells. Kind of assay: cells. The note with it: Homo sapiens, read-out: IC50 A431. The class given is cell-based, human. The method, then: (§1) Experiments were performed in RPMI (SW480 cells) or DMEM (HEK293 and A431 cells) medium (Gibco) supplemented with 2 mM glutamine, 10% fetal bovine serum, 100 IU/mL penicillin, 100 µg/mL streptomycin, and 1 µg/mL amphotericin B (all from Sigma) at 37 °C and 5% CO2. Cells were seeded into 96-well microtiter plates and compounds were added in DMSO in serial dilutions in triplicate. The final DMSO (dimethylsulfoxide) concentration was 0.1%. After 72 h, a WST-1 reagent was added and the absorption was measured at 450 nm with a plate reader after 30 min to 4 h. The percentage of viable cells was calculated based on vehicle-treated cells and was plotted in GraphPadPrism. At least three independent experiments were performed.
(§2) A431 cells were obtained from CLS. The other cell lines were available in the laboratory. WST-1 was purchased from Roche.

For the next assay, the system named is HEK293 cells. The assay can be described thus: cells. The note with it: Homo sapiens, read-out: IC50 HEK293. The format is cell-based, human. The method, then: as §1, §2
A further assay concerns SW480 cells. Kind of assay: cells. The format is cell-based, human. Conditions: Homo sapiens, read-out: IC50 SW480. The method, then:
as §1, §2

Assay [1] has as its target glutaraldehyde-stabilized microtubules (paclitaxel binding site). The assay can be described thus: Microtubule binding affinity by displacement of Flutax-2 (fluorescence anisotropy). Set-up: species or system calf. The procedure:
The binding affinity of epothilone analogs 1, 14, and 16 and of targeted conjugate 4 for microtubules was determined as previously described by Díaz and co-workers, using partly cross-linked microtubules and determining the changes in fluorescence anisotropy upon displacement of the fluorescent taxol derivative Flutax-2 [42, 43] (Figure S3).
Purified calf-brain tubulin and chemicals were obtained as previously described. Stabilized, moderately crosslinked microtubules were prepared as reported in [42]. Binding constants of azathilones to stabilized microtubules were measured as previously described by Buey et al.. For details of the experimental procedures and Flutax-2 displacement curves cf. Section SI.3 of the Supplementary Materials.
SI.3. Disulfide cleavage asssay
Figure S2. […]
60 mg of frozen tubulin were thawed and loaded on a Sephadex G-25 column pre-equilibrated with cold 1 mM EGTA, 3.4 M glycerol, 10 mM sodium phosphate pH 6.8 buffer supplemented with 0.1 mM GTP. […] Fractions were collected and analyzed by spectrophotometry at 295 nm on a Thermo Evolution 300LC device. […] The tubulin concentration of the supernatant was determined by spectrophotometry at a 1:20 dilution of 10 mM sodium phosphate buffer containing 1%
SDS. The concentration was calculated with an extinction coefficient of 107’000 M-1cm-1 at 276 nm. […]
The concentration was measured spectrophotometrically as previously. […]

In the next assay the test system is EGFR. Conditions: read-out: IC50 for displacement of [^125I]-EGF from the EGFR; cited from earlier work.
Assay [2] concerns cross-linked stabilized microtubules. On the set-up: method as in earlier work. The note with it: cited from earlier work.
A further assay deals with EGFR (Homo sapiens) (UniProt P00533). The assay can be described thus: SPR. Conditions: cited from earlier work.
Assay [3] addresses stabilized, moderately crosslinked microtubules (calf-brain tubulin) (calf (endogenous in calf brain)) (UniProt Q6B856). Kind of assay: fluorescence polarisation; displacement of the fluorescent taxol derivative Flutax-2 from glutaraldehyde-stabilized, partly cross-linked microtubules, read by change in fluorescence anisotropy; 35 °C; association constant Kb.

`C/C(=C\c1csc(C)n1)[C@@H]1C[C@@H]2O[C@@H]2CCC[C@H](C)[C@H](O)[C@@H](C)C(=O)C(C)(C)[C@@H](O)CC(=O)O1` [Epo A, Epothilone A]: the IC50 with A431 cells (A-431, 72 h) worked out at 0.00294 ± 0.0003 µM; in the assay on HEK293 cells (HEK293, 72 h), 0.00271 ± 0.00062 µM; with SW480 cells (SW480, 72 h) it was 0.0145 ± 0.00109 µM.

As for `Cc1nc2cc([C@@H]3C[C@@H]4C[C@H]4CCC[C@H](C)[C@H](O)[C@@H](C)C(=O)C(C)(C)CCC(=O)O3)ccc2n1CCO` [compound 1, (1S,3S,10R,11S,12S,16R)-11-Hydroxy-3-(1-(2-hydroxyethyl)-2-methyl-1H-benzo[d]imidazol-5-yl)-8,8,10,12-tetramethyl-4-oxabicyclo[14.1.0] heptadecane-5,9-dione], the IC50 in the assay with A431 cells (A-431, 72 h) was 0.00332 ± 0.0006 µM; with HEK293 cells (HEK293, 72 h), 0.00087 ± 0.00013 µM; in the assay with SW480 cells (SW480, 72 h) it was 0.0176 ± 0.0035 µM.

Take `CC(=O)SCCn1c(C)nc2cc([C@@H]3C[C@@H]4C[C@H]4CCC[C@H](C)[C@H](O)[C@@H](C)C(=O)C(C)(C)CCC(=O)O3)ccc21` [compound 14, S-(2-(5-((1S,3S,10R,11S,12S,16R)-11-Hydroxy-8,8,10,12-tetramethyl-5,9-dioxo-4-oxabicyclo[14.1.0]heptadecan-3-yl)-2-methyl-1H-benzo[d]imidazol-1-yl)ethyl) ethanethioate]: the “Kb lower compared to 1” value in assay [1] (ratio of microtubule-binding affinity versus analog 1) is given as over 10 fold.

Consider `Cc1nc2cc([C@@H]3C[C@@H]4C[C@H]4CCC[C@H](C)[C@H](O)[C@@H](C)C(=O)C(C)(C)CCC(=O)O3)ccc2n1CCSSCCn1c(C)nc2cc([C@@H]3C[C@@H]4C[C@H]4CCC[C@H](C)[C@H](O)[C@@H](C)C(=O)C(C)(C)CCC(=O)O3)ccc21` [compound 16, Dimer of (1S,3S,10R,11S,12S,16R)-11-hydroxy-3-(1-(2-mercaptoethyl)-2-methyl-1H-benzo[d]imidazol-5-yl)-8,8,10,12-tetramethyl-4-oxabicyclo[14.1.0]heptadecane-5,9-dione], for which the IC50 came to 0.00837 ± 0.00081 µM with A431 cells (A-431, 72 h incubation, mean of three experiments ± SD); 0.00208 ± 0.00053 µM in the assay with HEK293 cells (HEK293, 72 h incubation, mean of three experiments ± SD); 0.00891 ± 0.00126 µM with SW480 cells (SW480, 72 h incubation, mean of three experiments ± SD).

With “CysCE11: GE11 peptide with a Cys residue added to the N-terminus; custom-made by Biosyntan (CYHWYGYTPQNVI) [reference compound]”, the “microtubule binding (in words)” value in assay [1] is given as “no relevant microtubule binding”.

Turning to “EGF: epidermal growth factor, natural EGFR ligand”, the IC50 in the assay on EGFR was 0.0051 µM.

As to Flutax-2, the “Flutax-2 Ka” value is given as 6.5 107 M-1 in assay [2] (26 °C); 5.9 107 M-1 in assay [2] (27 °C); 4.6 107 M-1 in assay [2] (30 °C); 4.2 107 M-1 in assay [2] (32 °C); 3.0 107 M-1 in assay [2] (35 °C); 2.2 107 M-1 in assay [2] (37 °C). The “Flutax-2 Ka” value in assay [2] (40 °C) was 2.0 107 M-1; in assay [2] (42 °C) it was 1.8 107 M-1.

Take GE11 peptide: the Kd with EGFR (Homo sapiens) was 459 µM.

Regarding “GE11: 12-amino acid residue peptide of the sequence YHWYGYTPQNVI, reported to bind to EGFR [reference compound]”, the concentration for half-maximal inhibition (IC50) in the assay on EGFR was over 1000 µM.

In assay [3], CYHWYGYTPQNVI [Cys-GE11 peptide] came in with a Ka of 50000 M⁻¹.

B1: epothilone-GE11 conjugate 4 (peptide)
peptide: CYHWYGYTPQNVI
modifications: side chain of the N-terminal Cys disulfide-linked to the thiol-containing epothilone analog 2; C-terminal amide (by the systematic name of 4)
For the molecule B1, in assay [3], the Ka was found to be 9.3e+06 M⁻¹.
